According to ChEMBL document CHEMBL4033756, “Identification of Better Pharmacokinetic Benzothiazinone Derivatives as New Antitubercular Agents” (ACS Med Chem Lett, 2017):
Values after ≈ are worked out from the molar mass of the structure shown.

Tests used:
[1] = test system: Mycobacterium tuberculosis; assay: Antitubercular activity against multidrug-resistant Mycobacterium tuberculosis 12525 after 7 days by microplate alamar blue assay; assay type: functional; settings: Mycobacterium tuberculosis, 12525, 168 h
[2] = test system: Mycobacterium tuberculosis; assay: Antitubercular activity against multidrug-resistant Mycobacterium tuberculosis 14231 after 7 days by microplate alamar blue assay; assay type: functional; settings: Mycobacterium tuberculosis, 14231, 168 h

SMILES	MIC90 [1] [µM]	MIC90 [2] [µM]
O=c1nc(N2CCC3(CCN(Cc4ccc(F)cc4)C3)CC2)sc2c([N+](=O)[O-])cc(C(F)(F)F)cc12	< 0.035	0.034 (≈ 0.0178 µg/mL)
O=c1nc(N2CCC3(CCN(Cc4cccc(F)c4)CC3)CC2)sc2c([N+](=O)[O-])cc(C(F)(F)F)cc12	< 0.035	< 0.035
O=c1nc(N2CCC3(CCN(Cc4ccc(Br)cc4)CC3)CC2)sc2c([N+](=O)[O-])cc(C(F)(F)F)cc12	0.092 (≈ 0.055 µg/mL)	0.086 (≈ 0.0514 µg/mL)
COc1ccc(CN2CCC3(CCN(c4nc(=O)c5cc(C(F)(F)F)cc([N+](=O)[O-])c5s4)CC3)C2)cc1	0.056 (≈ 0.0299 µg/mL)	0.095 (≈ 0.0508 µg/mL)
O=c1nc(N2CCC3(CCN(Cc4cc(F)cc(F)c4)CC3)CC2)sc2c([N+](=O)[O-])cc(C(F)(F)F)cc12	< 0.035	< 0.035
O=c1nc(N2CCC3(CCN(Cc4ccc(C(F)(F)F)cc4)CC3)CC2)sc2c([N+](=O)[O-])cc(C(F)(F)F)cc12	< 0.035	< 0.035
COc1ccc(CN2CC3(CCN(c4nc(=O)c5cc(C(F)(F)F)cc([N+](=O)[O-])c5s4)CC3)C2)cc1	0.119 (≈ 0.0619 µg/mL)	0.123 (≈ 0.064 µg/mL)
O=c1nc(N2CCC3(CCN(Cc4ccccc4)C3)CC2)sc2c([N+](=O)[O-])cc(C(F)(F)F)cc12	< 0.035	< 0.035
CCOC(=O)CN1CCC2(CCN(c3nc(=O)c4cc(C(F)(F)F)cc([N+](=O)[O-])c4s3)CC2)C1	0.08 (≈ 0.04 µg/mL)	0.06 (≈ 0.03 µg/mL)
NNC(=O)c1ccncc1 [ISONIAZID]	> 292	34.5 (≈ 4.73 µg/mL)
O=c1nc(N2CCN(CC3CCCCC3)CC2)sc2c([N+](=O)[O-])cc(C(F)(F)F)cc12 [MACOZINONE]	< 0.035	< 0.035
CO[C@H]1/C=C/O[C@@]2(C)Oc3c(C)c(O)c4c(O)c(c(/C=N/N5CCN(C)CC5)c(O)c4c3C2=O)NC(=O)/C(C)=C\C=C\[C@H](C)[C@H](O)[C@@H](C)[C@@H](O)[C@@H](C)[C@H](OC(C)=O)[C@@H]1C [RIFAMPIN]	27.2 (≈ 22.4 µg/mL)	> 48.6
